Results on one compound are retold here after US20140044766A1, “METHOD FOR THE ANTIMICROBIAL PROTECTION OF AN OBJECT USING AN ANTIMICROBIAL PRESSURE-SENSITIVE ADHESIVE PLASTICS FILM” (priority 2007, published 2014).

SMILES strings stand for the structures. Entries after “also recorded” stand apart in the source; their conditions may differ.

The test system of one experiment is Pseudomonas aeruginosa. The note with it: cited from earlier work.
Experiment [1] deals with penicillin-resistant Stapylococcus aureus. Particulars: cited from earlier work.
Experiment [2] concerns Staphylococcus aureus bacteria. Description: inhibition zone method, similar to Japanese standard JIS L 1902: 2002. The format is cell-based. On the procedure: The antimicrobial activity of the films was determined using the inhibition zone method, similar to that described in Japanese standard JIS L 1902: 2002. The film was cut into small disks with a diameter of 1 cm. They were immersed in a dish containing a nutrient medium and a known quantity of yellow colored Staphylococcus aureus bacteria. […] A protective halo was formed around the treated samples that was termed the inhibition zone, as shown in FIGS. 4-1 to 4-15 representing the results for the antimicrobial films of Examples 1 to 15. Measuring this halo allowed the intensity of the antimicrobial activity of the film to be determined.

As to `Oc1cc(Cl)ccc1Oc1ccc(Cl)cc1Cl` [triclosan, 5-chloro-2-(2,4-dichlorophenoxy)phenol], in the experiment with Pseudomonas aeruginosa, the “effect on Pseudomonas aeruginosa” value was “not affected”. In addition, the “effect on penicillin-resistant Stapylococcus aureus” value in experiment [1] is “simply inhibited”. Besides, in experiment [2] (agent incorporated in acrylic varnish on PVC film), the “antimicrobial activity in varnish-coated films (comparison in words)” value is “more effective than Parmetol CF10 and Irgaguard H6000; also recorded: retained a high activity compared with the others”. Also, in experiment [2] (cast PVC film, Examples 8 to 15), the “antimicrobial activity in a film incorporating the agent in its material (comparison in words)” value is reported as “highest antimicrobial activity”.
